Consider 11 compounds from ChEMBL document CHEMBL5291721, “A preclinical secondary pharmacology resource illuminates target-adverse drug reaction associations of marketed drugs” (Nat Commun, 2023).

Targets include Adenosine receptor A2a (Homo sapiens, UniProt P29274); Vasopressin V1a receptor (Homo sapiens, UniProt P37288); Melanocortin receptor 3 (Homo sapiens, UniProt P41968).
Test [1] addresses T1, Amine oxidase [flavin-containing] A (Homo sapiens, UniProt P21397).
T1 sequence (P21397 whole entry): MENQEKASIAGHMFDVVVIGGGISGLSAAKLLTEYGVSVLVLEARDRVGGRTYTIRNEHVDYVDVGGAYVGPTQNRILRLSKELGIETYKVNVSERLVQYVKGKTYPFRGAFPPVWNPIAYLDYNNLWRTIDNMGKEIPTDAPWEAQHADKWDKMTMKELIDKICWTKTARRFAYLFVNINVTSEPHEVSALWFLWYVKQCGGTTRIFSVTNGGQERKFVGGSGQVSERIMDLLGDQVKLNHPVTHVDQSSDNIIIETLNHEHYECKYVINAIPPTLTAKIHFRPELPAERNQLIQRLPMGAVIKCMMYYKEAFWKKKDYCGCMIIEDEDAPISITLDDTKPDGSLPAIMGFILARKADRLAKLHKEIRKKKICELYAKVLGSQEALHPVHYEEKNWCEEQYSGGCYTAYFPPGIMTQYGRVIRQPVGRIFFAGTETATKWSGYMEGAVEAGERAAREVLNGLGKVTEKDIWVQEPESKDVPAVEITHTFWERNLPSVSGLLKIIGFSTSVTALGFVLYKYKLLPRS
It is filed as functional.

Another test deals with D(1A) dopamine receptor (Homo sapiens, UniProt P21728). The class given is functional, cell-based.
D(1A) dopamine receptor, sequence (P21728 whole entry): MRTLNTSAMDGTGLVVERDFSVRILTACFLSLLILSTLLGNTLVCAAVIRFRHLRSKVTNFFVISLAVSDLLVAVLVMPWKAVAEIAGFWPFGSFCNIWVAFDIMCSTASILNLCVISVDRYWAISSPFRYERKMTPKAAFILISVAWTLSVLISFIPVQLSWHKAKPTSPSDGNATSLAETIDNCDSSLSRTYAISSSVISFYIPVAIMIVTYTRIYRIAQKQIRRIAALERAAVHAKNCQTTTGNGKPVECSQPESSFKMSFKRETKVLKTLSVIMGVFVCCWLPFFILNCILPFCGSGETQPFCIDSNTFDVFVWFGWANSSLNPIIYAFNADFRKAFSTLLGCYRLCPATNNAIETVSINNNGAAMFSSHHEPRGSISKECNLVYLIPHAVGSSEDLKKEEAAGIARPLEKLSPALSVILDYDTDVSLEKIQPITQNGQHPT
For test [2], the target named is Growth hormone secretagogue receptor type 1 (Homo sapiens, UniProt Q92847).
Growth hormone secretagogue receptor type 1, sequence (Q92847 whole entry): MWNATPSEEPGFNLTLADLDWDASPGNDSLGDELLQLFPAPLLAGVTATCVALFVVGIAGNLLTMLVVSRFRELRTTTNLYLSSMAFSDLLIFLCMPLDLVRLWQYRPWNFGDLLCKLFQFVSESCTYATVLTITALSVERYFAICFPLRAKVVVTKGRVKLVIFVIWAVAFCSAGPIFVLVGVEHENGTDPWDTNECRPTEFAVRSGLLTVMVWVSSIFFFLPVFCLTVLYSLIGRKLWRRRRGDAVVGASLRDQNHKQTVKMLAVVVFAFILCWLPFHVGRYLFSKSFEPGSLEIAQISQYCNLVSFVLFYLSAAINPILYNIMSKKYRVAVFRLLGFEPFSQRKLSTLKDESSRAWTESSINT
For test [3], the target named is T2, Muscarinic acetylcholine receptor M2 (Homo sapiens, UniProt P08172).
T2 sequence (P08172 whole entry): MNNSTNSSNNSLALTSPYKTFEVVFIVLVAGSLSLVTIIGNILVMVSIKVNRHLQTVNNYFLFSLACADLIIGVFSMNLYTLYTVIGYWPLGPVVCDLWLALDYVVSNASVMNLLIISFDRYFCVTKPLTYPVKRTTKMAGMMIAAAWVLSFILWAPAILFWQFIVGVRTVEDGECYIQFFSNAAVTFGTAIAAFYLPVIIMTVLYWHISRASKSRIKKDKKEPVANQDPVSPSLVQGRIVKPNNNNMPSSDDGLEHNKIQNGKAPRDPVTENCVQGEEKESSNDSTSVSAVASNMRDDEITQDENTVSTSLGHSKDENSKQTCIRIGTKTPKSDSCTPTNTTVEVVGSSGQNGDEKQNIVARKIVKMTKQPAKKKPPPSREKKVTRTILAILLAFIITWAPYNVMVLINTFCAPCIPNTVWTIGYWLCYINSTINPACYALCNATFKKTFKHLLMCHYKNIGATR
It is filed as functional, cell-based.

Test [4] deals with T3, 5-hydroxytryptamine receptor 1A (Homo sapiens, UniProt P08908).
T3 sequence (P08908 whole entry): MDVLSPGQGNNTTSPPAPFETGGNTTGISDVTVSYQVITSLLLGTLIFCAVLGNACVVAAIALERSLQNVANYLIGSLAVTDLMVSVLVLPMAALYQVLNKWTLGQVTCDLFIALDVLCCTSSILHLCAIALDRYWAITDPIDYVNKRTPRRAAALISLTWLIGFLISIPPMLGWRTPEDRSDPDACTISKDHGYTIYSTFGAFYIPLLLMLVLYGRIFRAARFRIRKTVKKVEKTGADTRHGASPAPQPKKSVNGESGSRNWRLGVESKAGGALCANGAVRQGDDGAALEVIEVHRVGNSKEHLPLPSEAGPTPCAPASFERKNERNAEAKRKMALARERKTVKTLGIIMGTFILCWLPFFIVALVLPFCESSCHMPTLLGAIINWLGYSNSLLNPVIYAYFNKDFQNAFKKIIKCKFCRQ
The class given is functional, cell-based.

The target of test [5] is T4, Alpha-2A adrenergic receptor (Homo sapiens, UniProt P08913).
T4 sequence (P08913 whole entry): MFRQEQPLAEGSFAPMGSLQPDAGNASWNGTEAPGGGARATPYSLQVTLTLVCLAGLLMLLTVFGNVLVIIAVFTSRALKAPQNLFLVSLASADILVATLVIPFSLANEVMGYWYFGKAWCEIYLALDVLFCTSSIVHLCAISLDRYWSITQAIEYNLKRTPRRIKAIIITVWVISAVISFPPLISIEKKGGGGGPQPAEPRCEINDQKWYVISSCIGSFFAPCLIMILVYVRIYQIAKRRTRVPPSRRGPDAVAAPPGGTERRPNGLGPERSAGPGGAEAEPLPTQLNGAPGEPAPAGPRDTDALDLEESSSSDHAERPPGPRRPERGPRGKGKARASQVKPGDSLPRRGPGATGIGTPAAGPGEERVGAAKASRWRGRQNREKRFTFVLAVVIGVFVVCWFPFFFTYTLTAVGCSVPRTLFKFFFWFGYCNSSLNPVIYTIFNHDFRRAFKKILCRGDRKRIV
The class given is functional, cell-based.

For test [6], the target named is T5, Neuropeptide Y receptor type 1 (Homo sapiens, UniProt P25929).
T5 sequence (P25929 whole entry): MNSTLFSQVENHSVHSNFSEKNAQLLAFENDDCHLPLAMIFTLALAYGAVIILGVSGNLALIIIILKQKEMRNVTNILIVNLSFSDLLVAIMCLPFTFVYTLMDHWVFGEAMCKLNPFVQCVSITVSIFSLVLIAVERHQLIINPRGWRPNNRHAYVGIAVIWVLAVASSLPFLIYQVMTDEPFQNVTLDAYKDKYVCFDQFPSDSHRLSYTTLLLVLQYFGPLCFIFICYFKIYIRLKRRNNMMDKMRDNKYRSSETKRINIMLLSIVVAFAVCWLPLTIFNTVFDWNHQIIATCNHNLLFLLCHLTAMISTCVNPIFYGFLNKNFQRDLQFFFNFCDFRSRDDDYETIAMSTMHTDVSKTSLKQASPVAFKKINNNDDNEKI

Test [7] deals with 5-hydroxytryptamine receptor 2B (Homo sapiens, UniProt P41595). The class given is functional, cell-based.
5-hydroxytryptamine receptor 2B, sequence (P41595 whole entry): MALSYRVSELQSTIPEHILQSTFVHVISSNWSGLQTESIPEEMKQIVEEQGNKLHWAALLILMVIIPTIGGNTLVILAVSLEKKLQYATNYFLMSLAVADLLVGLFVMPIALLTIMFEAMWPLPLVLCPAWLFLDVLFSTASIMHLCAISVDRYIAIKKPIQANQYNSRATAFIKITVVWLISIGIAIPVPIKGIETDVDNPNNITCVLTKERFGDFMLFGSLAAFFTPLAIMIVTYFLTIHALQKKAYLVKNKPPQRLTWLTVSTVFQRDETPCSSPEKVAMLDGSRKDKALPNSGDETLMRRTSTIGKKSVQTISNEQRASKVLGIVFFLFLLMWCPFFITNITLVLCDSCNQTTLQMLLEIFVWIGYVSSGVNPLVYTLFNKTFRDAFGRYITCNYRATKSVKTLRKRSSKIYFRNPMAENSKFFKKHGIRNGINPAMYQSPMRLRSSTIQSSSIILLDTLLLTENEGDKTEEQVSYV
Test [8] concerns the target cGMP-inhibited 3',5'-cyclic phosphodiesterase 3A (Homo sapiens, UniProt Q14432). It is filed as functional.

Where a SMILES comes first, the peptide text is derived from it.
Note: assay procedure not described here.

cGMP-inhibited 3',5'-cyclic phosphodiesterase 3A, sequence (Q14432 whole entry): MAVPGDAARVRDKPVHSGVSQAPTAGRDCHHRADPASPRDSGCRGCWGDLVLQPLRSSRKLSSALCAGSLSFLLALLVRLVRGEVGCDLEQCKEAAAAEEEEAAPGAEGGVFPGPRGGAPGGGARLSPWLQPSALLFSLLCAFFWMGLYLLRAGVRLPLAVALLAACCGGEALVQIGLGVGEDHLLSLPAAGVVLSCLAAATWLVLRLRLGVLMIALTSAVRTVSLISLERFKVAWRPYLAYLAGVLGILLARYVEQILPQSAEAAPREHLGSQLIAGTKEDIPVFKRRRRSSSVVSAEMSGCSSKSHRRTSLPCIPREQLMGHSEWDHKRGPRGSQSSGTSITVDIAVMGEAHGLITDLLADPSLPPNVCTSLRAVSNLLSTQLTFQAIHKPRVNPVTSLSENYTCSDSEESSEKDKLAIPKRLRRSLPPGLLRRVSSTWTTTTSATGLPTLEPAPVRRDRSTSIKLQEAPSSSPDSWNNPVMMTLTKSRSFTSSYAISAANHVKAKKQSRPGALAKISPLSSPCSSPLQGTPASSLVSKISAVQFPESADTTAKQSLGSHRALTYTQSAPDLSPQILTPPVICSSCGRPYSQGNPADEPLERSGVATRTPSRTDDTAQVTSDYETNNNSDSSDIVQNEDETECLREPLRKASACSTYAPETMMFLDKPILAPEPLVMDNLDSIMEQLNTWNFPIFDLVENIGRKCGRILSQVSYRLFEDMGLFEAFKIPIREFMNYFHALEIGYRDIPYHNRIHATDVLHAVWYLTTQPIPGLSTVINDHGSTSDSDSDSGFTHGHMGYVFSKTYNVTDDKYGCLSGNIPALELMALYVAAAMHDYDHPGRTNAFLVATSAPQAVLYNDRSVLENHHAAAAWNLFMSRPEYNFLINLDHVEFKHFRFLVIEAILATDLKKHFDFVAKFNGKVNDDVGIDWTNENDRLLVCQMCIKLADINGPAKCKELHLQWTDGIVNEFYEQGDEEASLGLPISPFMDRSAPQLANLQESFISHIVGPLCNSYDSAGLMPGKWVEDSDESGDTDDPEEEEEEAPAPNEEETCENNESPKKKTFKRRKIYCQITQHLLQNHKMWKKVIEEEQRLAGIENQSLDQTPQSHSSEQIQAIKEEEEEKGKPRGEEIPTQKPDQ
Melanocortin receptor 3, sequence (P41968 whole entry): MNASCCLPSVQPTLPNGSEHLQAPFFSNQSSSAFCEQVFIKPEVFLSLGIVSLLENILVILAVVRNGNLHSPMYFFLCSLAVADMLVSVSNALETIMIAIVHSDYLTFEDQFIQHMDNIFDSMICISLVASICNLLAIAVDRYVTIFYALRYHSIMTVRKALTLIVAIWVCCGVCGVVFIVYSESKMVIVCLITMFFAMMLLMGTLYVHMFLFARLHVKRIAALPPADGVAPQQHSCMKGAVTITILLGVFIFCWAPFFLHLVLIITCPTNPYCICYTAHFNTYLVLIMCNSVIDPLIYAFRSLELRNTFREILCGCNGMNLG
Vasopressin V1a receptor, sequence (P37288 whole entry): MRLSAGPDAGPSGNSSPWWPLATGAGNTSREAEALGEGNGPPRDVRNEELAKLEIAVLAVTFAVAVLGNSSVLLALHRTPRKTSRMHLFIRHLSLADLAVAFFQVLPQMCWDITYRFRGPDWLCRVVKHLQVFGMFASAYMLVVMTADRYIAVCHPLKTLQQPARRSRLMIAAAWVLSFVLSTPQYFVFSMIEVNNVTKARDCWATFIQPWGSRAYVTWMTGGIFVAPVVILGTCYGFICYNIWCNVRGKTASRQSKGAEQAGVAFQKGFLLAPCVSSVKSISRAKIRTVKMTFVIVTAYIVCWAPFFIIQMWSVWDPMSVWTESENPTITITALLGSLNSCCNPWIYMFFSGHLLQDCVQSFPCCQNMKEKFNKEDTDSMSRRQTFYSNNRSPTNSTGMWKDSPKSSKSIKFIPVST
Adenosine receptor A2a, sequence (P29274 whole entry): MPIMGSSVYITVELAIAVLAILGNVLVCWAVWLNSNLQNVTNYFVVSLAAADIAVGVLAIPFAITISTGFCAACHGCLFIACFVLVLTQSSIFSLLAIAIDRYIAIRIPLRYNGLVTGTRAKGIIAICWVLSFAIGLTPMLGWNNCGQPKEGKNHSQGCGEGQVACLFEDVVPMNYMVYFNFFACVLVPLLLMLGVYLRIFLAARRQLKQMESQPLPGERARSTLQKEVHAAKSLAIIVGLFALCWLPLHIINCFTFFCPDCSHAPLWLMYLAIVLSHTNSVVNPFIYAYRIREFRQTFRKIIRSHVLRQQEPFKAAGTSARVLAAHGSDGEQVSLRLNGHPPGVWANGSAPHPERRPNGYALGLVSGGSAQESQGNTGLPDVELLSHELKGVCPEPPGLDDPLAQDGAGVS

For the compound `CCCCCCOC(=O)NC(=N)c1ccc(NCc2nc3cc(C(=O)N(CCC(=O)OCC)c4ccccn4)ccc3n2C)cc1` [DABIGATRAN ETEXILATE], the concentration at half-maximal activity (AC50) (in test [1]; at D(1A) dopamine receptor; in test [2]; in [3]; at Adenosine receptor A2a; in test [4]) was more than 30 µM each time. The AC50 (in test [5]; at Vasopressin V1a receptor; on Melanocortin receptor 3; in [6]; in test [7]; in test [8]) was more than 30 µM in each case.
As to `CN(C)CCOCC(=O)NC12CC3CC(CC(C3)C1)C2` [TROMANTADINE], the AC50 (in [1]; on D(1A) dopamine receptor; in [2]; in test [3]; on Adenosine receptor A2a; in [4]) was more than 30 µM each time. Also, the AC50 (in test [5]; at Vasopressin V1a receptor; at Melanocortin receptor 3; in test [6]; in test [7]; in [8]) was more than 30 µM in each case.
On to `CC1=C(C(=O)O)N2C(=O)[C@@H](NC(=O)[C@H](N)C3=CCC=CC3)[C@H]2SC1` [CEPHRADINE], for which the AC50 (in test [1]; on D(1A) dopamine receptor; in test [2]; in [3]; on Adenosine receptor A2a; in [4]) was more than 30 µM throughout. The AC50 (in [5]; at Vasopressin V1a receptor; at Melanocortin receptor 3; in [6]; in [7]; in [8]) was more than 30 µM each time.
As to `O=C(O)c1nn(Cc2ccc(Cl)cc2Cl)c2ccccc12` [LONIDAMINE], the AC50 (in test [1]; at D(1A) dopamine receptor; in test [2]; in test [3]; on Adenosine receptor A2a; in [4]) was more than 30 µM each time. Besides, the AC50 (in [5]; at Vasopressin V1a receptor; at Melanocortin receptor 3; in [6]; in test [7]; in [8]) was more than 30 µM each time.
Take `CCC(NC(C)C)C(O)c1ccc(O)c(O)c1` (configuration not stated) [ISOETHARINE]: the AC50 (in test [1]; at D(1A) dopamine receptor; in test [2]; in test [3]; on Adenosine receptor A2a; in test [4]) was more than 30 µM each time. Further, the AC50 (in test [5]; on Vasopressin V1a receptor; at Melanocortin receptor 3; in [6]; in test [7]; in test [8]) was more than 30 µM throughout.
As to SITOSTEROLS, the AC50 (in test [1]; at D(1A) dopamine receptor; in [2]; in [3]; on Adenosine receptor A2a; in test [4]) was more than 30 µM throughout. For the same compound, the AC50 (commonly the concentration at which the activity in the assay is half-maximal) in test [5] was more than 30 µM; at Vasopressin V1a receptor, more than 30 µM; on Melanocortin receptor 3 it was more than 30 µM; in test [6], more than 30 µM; in test [7], more than 30 µM; in [8], more than 10 µM.
As to `Cc1ccc(S(=O)(=O)NC(=O)N[C@H]2[C@H]3CC[C@@](C)([C@H]2O)C3(C)C)cc1` [GLIBORNURIDE], the AC50 (in test [1]; at D(1A) dopamine receptor; in test [2]; in test [3]; at Adenosine receptor A2a; in test [4]) was more than 30 µM in each case. The AC50 (in [5]; at Vasopressin V1a receptor; on Melanocortin receptor 3; in test [6]; in test [7]; in test [8]) was more than 30 µM throughout.
Regarding `CO/N=C(\C(=O)N[C@@H]1C(=O)N2C(C(=O)[O-])=C(C[n+]3ccc(N)n3CCO)CS[C@H]12)c1csc(N)n1` [CEFOSELIS], the AC50 (in test [1]; at D(1A) dopamine receptor; in test [2]; in [3]; at Adenosine receptor A2a; in test [4]) was more than 30 µM throughout. Further, the half-maximal activity concentration (AC50) (in test [5]; at Vasopressin V1a receptor; at Melanocortin receptor 3; in [6]; in test [7]; in [8]) was more than 30 µM in each case.
Turning to `CCCCOC(=O)C(=O)Nc1cccc(-c2nnn[nH]2)c1` [TAZANOLAST], the AC50 (in [1]; at D(1A) dopamine receptor; in test [2]; in [3]; on Adenosine receptor A2a; in test [4]) was more than 30 µM each time. In addition, the AC50 (in test [5]; on Vasopressin V1a receptor; at Melanocortin receptor 3; in test [6]; in test [7]; in test [8]) was more than 30 µM throughout.
For `COc1cc(N)cn[n+]1-c1ccccc1` [AMEZINIUM METILSULFATE], the AC50 in [1] was 11 µM; at D(1A) dopamine receptor it was more than 30 µM; in [2], more than 30 µM; in test [3], more than 30 µM; at Adenosine receptor A2a it was more than 30 µM; in test [4], more than 30 µM. The AC50 (in [5]; on Vasopressin V1a receptor; on Melanocortin receptor 3; in test [6]; in test [7]; in [8]) was more than 30 µM each time.
For the compound `C[C@H](N)C(=O)N[C@@H](CCC(N)=O)C(=O)O` [ALANYL GLUTAMINE] (H-Ala-Gln-OH), the AC50 in [1] is 15 µM; on D(1A) dopamine receptor, more than 30 µM; in test [2] it was more than 30 µM; in test [3], more than 30 µM; at Adenosine receptor A2a it was more than 30 µM; in test [4], more than 30 µM. The AC50 (in test [5]; on Vasopressin V1a receptor; at Melanocortin receptor 3; in [6]; in test [7]; in [8]) was more than 30 µM each time.
